This is an account of results in patent US20130184280A1, “SUBSTITUTED THIAZOLES AS VEGFR2 KINASE INHIBITORS” (TELIK, INC., priority 2011, published 2013).

One series deals with T1, VEGFR2 kinase (Homo sapiens, UniProt P35968).
T1 construct: purchased InVitrogen
The series is described as follows: In Vitro VEGFR2 Kinase Assay. The series is classed as biochemical. To be noted: FP; CSKtide substrate, 60 minutes at room temperature. The protocol: In Vitro VEGFR2 Kinase Assay
50 ng/well VEGFR2 kinase (from InVitrogen) was mixed in buffer (14.5 μL/well). To this were added, 0.5 μL of the compound of this invention at a concentration of 2.5% in DMSO. After incubatiuon for 5 minutes at room temperature, 5 μL of substrate (CSKtide, 400 nM) and 8 μL ATP were added. The mixture was incubated for 60 minutes at room temperature and 60 uL of binding reagent (beads) was added. After incubation overnight at room temperature, the plate was read with a LJL plate reader.

For series [1], the system named is HCT116 (human colon carcinoma). The series is described as follows: In Vivo HCT116 Xenograft Model. Conditions: athymic nu/nu mice.
Series [2] can be described thus: In Vitro Cytotoxicity Assay HL60 (CellTiter-Glo). To be noted: human, HL60 promyelocytic leukemia cells; HL 60 cells, cultured three days. The series is classed as cell-based. The protocol:
(§1) The cell lines HL60 (human promyelocytic leukemia) and HCT116 (human colon carcinoma) were obtained from the American Type Culture Collection, Manassas, Va., U.S.A. All products were used in accordance with manufacturer's directions. The cytotoxicity assays were conducted in triplicate, in each case with solvent control.
(§2) Log-phase cells were trypsinized, collected by centrifugation, and resuspended in a small volume of fresh medium, and the density of viable cells was determined following Trypan Blue staining Cells were diluted in fresh media, the test compounds (concentrations between 0.1 μM and 200 μM, dissolved in DMSO, 50 μL) added immediately after dilution to achieve a final DMSO concentration of 0.5%, then the suspensions added at 150 μL/well to 96-well plates, and incubated overnight to allow attachment in the case of adherent cells. The cells were cultured for three days (about three doubling times). The cells were then collected by centrifugation, and 100 μL of the culture supernatant was replaced by the CellTiter-Glo reagent. After incubation for 15 minutes at room temperature, the plate was read with a luminometer. […] The table gives cytotoxicity IC50s in μm.

Series [3] can be described thus: In Vitro Cytotoxicity Assay HCT116 (CellTiter-Glo). To be noted: human, HCT116 colon carcinoma cells, cultured three days. It counts as cell-based. On the procedure:
as §1, §2
On the technique in general: ATP-based viability assays read luminescence as a measure of living cells.

The mark [4] stands for this setting: 30 mg/Kg intraperitoneally once/day on days 1-5 and 8-12, measured 2 days after last treatment.

T1 sequence (P35968 20-1356): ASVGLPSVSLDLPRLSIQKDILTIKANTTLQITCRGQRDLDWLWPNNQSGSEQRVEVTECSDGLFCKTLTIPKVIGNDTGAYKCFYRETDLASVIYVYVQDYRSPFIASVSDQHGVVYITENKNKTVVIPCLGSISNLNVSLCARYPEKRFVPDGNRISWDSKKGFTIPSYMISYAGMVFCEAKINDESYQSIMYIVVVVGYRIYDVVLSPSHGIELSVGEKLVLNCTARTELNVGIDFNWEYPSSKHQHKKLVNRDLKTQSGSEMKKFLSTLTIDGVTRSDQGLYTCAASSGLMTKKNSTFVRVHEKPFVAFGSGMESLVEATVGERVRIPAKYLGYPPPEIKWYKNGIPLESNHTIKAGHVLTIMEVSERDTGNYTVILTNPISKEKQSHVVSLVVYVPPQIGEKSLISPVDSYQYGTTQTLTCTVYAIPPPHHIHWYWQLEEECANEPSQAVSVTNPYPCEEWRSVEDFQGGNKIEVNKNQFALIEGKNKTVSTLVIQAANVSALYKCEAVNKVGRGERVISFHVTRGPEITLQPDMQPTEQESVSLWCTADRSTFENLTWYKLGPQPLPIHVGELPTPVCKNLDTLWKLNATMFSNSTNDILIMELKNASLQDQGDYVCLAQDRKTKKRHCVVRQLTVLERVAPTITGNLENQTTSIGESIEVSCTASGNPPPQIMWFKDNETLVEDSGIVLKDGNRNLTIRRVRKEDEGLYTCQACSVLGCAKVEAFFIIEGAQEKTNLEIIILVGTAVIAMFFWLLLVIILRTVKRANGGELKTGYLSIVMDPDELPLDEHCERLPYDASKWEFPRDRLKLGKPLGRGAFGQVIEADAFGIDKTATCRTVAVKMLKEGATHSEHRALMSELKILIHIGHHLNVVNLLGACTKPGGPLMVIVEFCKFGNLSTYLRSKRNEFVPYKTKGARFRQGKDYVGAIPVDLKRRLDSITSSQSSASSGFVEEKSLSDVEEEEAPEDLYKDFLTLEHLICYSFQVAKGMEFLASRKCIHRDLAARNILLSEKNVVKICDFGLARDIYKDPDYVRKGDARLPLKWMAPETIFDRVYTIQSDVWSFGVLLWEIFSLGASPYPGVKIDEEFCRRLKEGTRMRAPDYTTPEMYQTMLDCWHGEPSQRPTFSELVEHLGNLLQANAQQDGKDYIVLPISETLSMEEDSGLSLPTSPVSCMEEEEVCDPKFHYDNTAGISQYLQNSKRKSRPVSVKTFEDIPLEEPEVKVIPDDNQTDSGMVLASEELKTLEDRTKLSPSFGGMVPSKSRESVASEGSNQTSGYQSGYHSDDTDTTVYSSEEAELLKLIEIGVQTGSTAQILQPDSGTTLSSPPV

With `Nc1ncncc1-c1nc(-c2cccc(NC(=O)c3ccccc3)c2)cs1` [Compound 3], on VEGFR2 kinase, the IC50 stood at 20 nM. In series [1] (setting [4]), the Tumor growth inhibition entry was “showed inhibition of tumor growth compared to vehicle”. In addition, the IC50 at 3 days in series [2] is 3000 nM; in series [3] it was 20000 nM.
The corresponding values for `Cc1cccc(NC(=O)Nc2cccc(-c3csc(-c4cncnc4N)n3)c2)c1` [Compound 17, 1-(3-(2-(4-aminopyrimidin-5-yl)thiazol-4-yl)phenyl)-3-m-tolylurea] are 10 nM, “showed inhibition of tumor growth compared to vehicle”, 300 nM and 1000 nM.
For the compound `Nc1ncncc1-c1nc(-c2cccc(NC(=O)Nc3ccccc3Cl)c2)cs1` [Compound 18], the IC50 against VEGFR2 kinase amounted to 30 nM. Moreover, the IC50 at 3 days in series [2] came out at 500 nM; in series [3] it was 30000 nM.
Taken in the same sequence, the figures for `Cc1ccccc1NC(=O)Nc1cccc(-c2csc(-c3cncnc3N)n2)c1` [Compound 19] were 70 nM, 900 nM and over 50000 nM.
Taken in the same sequence, the figures for `Nc1ncncc1-c1nc(-c2cccc(NC(=O)Nc3ccccc3C(F)(F)F)c2)cs1` [Compound 20] were 50 nM, 700 nM and 50000 nM.
On to `Nc1ncncc1-c1nc(-c2cccc(NC(=O)c3ccccn3)c2)cs1` [Compound 21], for which, on VEGFR2 kinase, the IC50 is 200 nM. The IC50 at 3 days in series [2] is 4000 nM; in series [3], over 50000 nM.
The corresponding values for `Nc1ncncc1-c1nc(-c2cccc(NC(=O)Nc3ccc(Cl)c(C(F)(F)F)c3)c2)cs1` [Compound 22] are 20 nM, 1000 nM and 1000 nM.
Taken in the same sequence, the figures for `COc1ccccc1NC(=O)Nc1cccc(-c2csc(-c3cncnc3N)n2)c1` [Compound 26] were 40 nM, 400 nM and 7000 nM.
Taken in the same sequence, the figures for `Cc1ccc(NC(=O)Nc2cccc(-c3csc(-c4cncnc4N)n3)c2)cc1C` [Compound 27] were 40 nM, 4000 nM and 2000 nM.
The compound `CCc1ccc(NC(=O)Nc2cccc(-c3csc(-c4cncnc4N)n3)c2)cc1` [Compound 28] showed an IC50 on VEGFR2 kinase of 70 nM. The values for the IC50 at 3 days in series [2] and in series [3] were 1000 nM and 8000 nM, respectively.
The corresponding values for `Nc1ncncc1-c1nc(-c2cccc(NC(=O)Nc3cccc(C(F)(F)F)c3)c2)cs1` [Compound 39] are 20 nM, 1000 nM and 2000 nM.
For `Nc1ncncc1-c1nc(-c2cccc(NC(=O)Nc3cccc(CN4CCOCC4)c3)c2)cs1` [Compound 46], the IC50 against VEGFR2 kinase stood at 20 nM. Further, the Tumor growth inhibition result in series [1] (setting [4]) is reported as “showed inhibition of tumor growth compared to vehicle”; in series [1] (administered orally), “showed inhibition of tumor growth when administered orally”. The IC50 at 3 days in series [2] worked out at 700 nM; in series [3], 8000 nM.
Consider `Nc1ncncc1-c1nc(-c2cccc(NC(=O)c3cccc(CN4CCOCC4)c3)c2)cs1` [Compound 52], for which the IC50 at VEGFR2 kinase worked out at 500 nM. For the same compound, the 50% inhibitory concentration (IC50) at 3 days in series [2] came to 1000 nM; in series [3] it was 4000 nM.
The corresponding values for `CN(C)Cc1cccc(C(=O)Nc2cccc(-c3csc(-c4cncnc4N)n3)c2)c1` [Compound 55] are 400 nM, 400 nM and 2000 nM.
Taken in the same sequence, the figures for `Nc1ncncc1-c1nc(-c2cccc(NC(=O)c3cccc(CNCCO)c3)c2)cs1` [Compound 56] were 100 nM, 2000 nM and 3000 nM.
Turning to `Nc1ncncc1-c1nc(-c2cccc(NC(=O)NCc3ccccc3)c2)cs1` [Compound 58], inhibition at VEGFR2 kinase was half-maximal at 60 nM (IC50). Besides, the IC50 at 3 days in series [2] amounted to 400 nM; in series [3], 4000 nM.
Taken in the same sequence, the figures for `Nc1ncncc1-c1nc(-c2cccc(NC(=O)NC3CCCCC3)c2)cs1` [Compound 65] were 40 nM, 1000 nM and 8000 nM.
Consider `Nc1ncncc1-c1nc(-c2cccc(NC(=O)Nc3ccc4c(c3)OCO4)c2)cs1` [Compound 72], for which the IC50 at VEGFR2 kinase is 60 nM. The 50% inhibitory concentration (IC50) at 3 days in series [2] was 300 nM; in series [3], 2000 nM.

As a reminder, the IC50 is the point on the concentration scale where inhibition reaches its midpoint.
